Results taken from publication PMC7914648 (Pharmaceuticals, 2021).

Legend:
C57BL mice = test: Observed toxicity after tail vein injection; format: in vivo; conditions: 5 µmoles/kg bw by tail vein injection in mouse plasma, no proper toxicological study
Description: TAT-PAPTP (5 µmoles/kg bw) was administered by tail vein injection to 2 C57BL mice. […] The observed toxicity was not due to the use of plasma, since mice were not made ill by the administration of PAPTP or An2-PAPTP in the same vehicle (see below, Section 2.7).
(§1) A stock solution of the peptide-PAPTP conjugates was prepared in DMSO. TAT-PAPTP was administered at 8 and 5 μmol/kg bw and An2-PAPTP only at 5 μmol/kg bw. The calculated quantity of drugs was diluted from the stock solution in saline or mouse plasma to a final volume of 200 μL.

[1] = Aqueous solubility determination; format: physicochemical; conditions: kinetic, 25 mM DMSO stock diluted to 100 μM (DMSO < 0.4%), supernatant HPLC/UV
Description: For TAT-PAPTP and An2-PAPTP, three distinct suspensions were prepared by diluting 25 mM stock solutions in DMSO to 100 μM, in 0.9% NaCl saline or water (DMSO < 0.4%). The suspensions were sonicated 5 min and immediately analyzed. The suspensions were then centrifuged at 12,000× g, 18 °C, for 1 and 2 h, and the supernatants were analyzed by HPLC/UV at the end of each centrifugation. An additional analysis was performed after 24 h of standing. The chromatographic peak areas were used to determine the concentration of the compound in the supernatants, based on calibration curves built using solutions in DMSO.

[2] = format: in vivo, mouse; conditions: TAT-PAPTP 5 µmoles/kg bw i.v. tail vein in mouse plasma, 2 C57BL mice sacrificed within 15 min; PAPTPL extracted after hydrolysis at pH 12.5, HPLC
Description: The brains of these mice were analyzed to evaluate the presence of the construct in the tissue (see Section 4.7). Each brain was homogenized and incubated with an equal volume of phosphate-buffered saline (PBS, pH 12.5) for 24 h; 10 volumes of ethyl acetate were then added. After vigorous mixing, the organic phase was collected, concentrated and analyzed via HPLC. This procedure allows hydrolysis of the carbamate bond, leading to the extraction of PAPTPL, which is considered proportional to the amount of peptide-PAPTP conjugate (or its fragments) present in the brain.
The protocol set up for PAPTPL recovery turned out to be inefficient for the quantification of TAT-PAPTP. An alternative protocol was thus developed. Tissue obtained from untreated mice was weighed and homogenized with PBS pH 7.4 (1 vol) with a potter. The pre-established amount of analyte was added into tissue homogenates and, after thorough vortexing, 1 vol of PBS pH 12.5 was added and the sample was incubated with intermittent vortexing at 60 °C for 24 h. This step is required to allow the hydrolysis of the carbamate bond connecting the peptide and PAPTPL. 10 vol of ethyl acetate were added and, after vortexing and sonication for 2 min, the sample was centrifuged at 12,000× g, 7 min, Room Temperature. The organic phase was collected and concentrated with Hetovac VR-1. ACN was added to the concentrated sample to allow the resuspension of PAPTPL and analyzed via HPLC. Quantification was as described for PAPTPL.
(§2) Brain and liver obtained from untreated mice were weighed and homogenized with PBS pH 7.4 (1 vol) with a potter. The pre-established amount of analyte was added into tissue homogenates and, after thorough vortexing, 5 vol of acetone were added and the sample was sonicated for 2 min. Subsequently, 5 vol of ACN containing 0.1% trifluoracetic acid (TFA) were added and the sample was sonicated for 5 min. The sample was then centrifuged at 12,000× g for 7 min at 4 °C and the supernatant was collected, concentrated with a Hetovac VR-1, and analyzed via HPLC-UV.
(§3) To quantify the amount of An2-PAPTP stuck in the tissue, the pellet remaining after the procedure described above was incubated with intermittent Vortexing at 60 °C for 3 h with PBS pH 12.5/ACN 1:1 and then centrifuged at 12,000× g for 7 min. HPLC-UV analysis of the supernatant, measuring PAPTPL hydrolyzed from the tissue, thus indirectly reflects the amount of An2-PAPTPL in the pellet (Scheme 3). Quantification was as described for PAPTPL.
as §1

mouse Red Blood Cells = test: Haemolysis assay; format: cell-based; conditions: 5 × 10^7 mouse erythrocytes in 1 mL PBS pH 7.4, 2, 1 or 0.5 µM, 15 min, absorbance 540 nm, n = 3
Description: Haemolysis studies were conducted as described in [72]. Briefly, freshly withdrawn blood samples were centrifuged at 1000× g for 10 min to obtain erythrocytes; the pellet was then washed thrice with sterile PBS (pH 7.4). Erythrocytes (5 × 10^7 cells in 1 mL of PBS for each experimental condition) were incubated with 2, 1 or 0.5 µM An2-PAPTP or TAT-PAPTP for 15 min. The samples were then centrifuged and absorbance (Abs) of the supernatant was measured at 540 nm. Triton X-100 1% and PBS were used as positive and negative control, respectively.
The percentage of haemolysis was calculated with the following equation:% haemolysis = [(Abssample − AbsPBS)/AbsTriton X-100 − AbsPBS)] × 100

[3] = Stability in blood (hydrolysis, PAPTPL release); format: in vitro ADME; conditions: fresh heparinized C57BL mouse blood, 37 °C, 5 µM from 5 mM DMSO stock, HPLC-UV, % PAPTPL released relative to amount spiked, mean, n = 5 (An2-PAPTP) and 4 (TAT-PAPTP)
Description: C57BL mice were anesthetized and blood was withdrawn from the jugular vein and heparinized. Blood samples (1 mL) were spiked with compound (5 µM; dilution from a 5 mM stock solution in DMSO) and incubated at 37 °C for 4 h (the maximum period allowed by blood stability). Aliquots were taken after 10 min, 30 min, 1 h, 2 h, and 4 h before HPLC-UV analysis.
Each aliquot was treated as described above (Section 4.7.1). Compound stability in blood was expressed as % of PAPTPL released relative to the amount of An2-PAPTP and TAT-PAPTP spiked in the sample at time 0.

orthotopic glioma = conditions: orthotopic murine model; cited from earlier work
Source text: (§4) In turn, this difficulty may be due at least in part precisely to the TPP group, since the parent compound, PAP-1, is effective against various Central Nervous System (CNS) disorders. This difficulty is not surprising if one compares the characteristics of ...

[4] = system: cultured glioma and glioblastoma cell lines; conditions: cited from earlier work
Source text: as §4

[5] = Preliminary brain levels after intraperitoneal An2-PAPTP; format: in vivo, mouse; conditions: An2-PAPTP 5 µmol/kg bw i.p. in DMSO; sacrifice at 20 min or 1, 2, 4 h; four mice
Description: In preliminary tests An2-PAPTP was administered at 5 µmol/kg bw by the intraperitoneal (i.p.) route, using dimethylsulfoxide (DMSO) as the vehicle. […] Many brain-penetrating peptides bind to biomolecules such as proteins and cell structures such as membranes. Furthermore, the absence of a flowing bloodstream at the injection site may cause a poorly soluble molecule to remain confined in the vicinity of the point of delivery. […] Collectively, these preliminary results led to the adoption of the intravenous route. An2-PAPTP (5 µmoles/kg bw, in plasma) was thus administered by tail vein injection to mice.

[6] = Tissue distribution of An2-PAPTP and metabolites (liver, spleen, kidneys, heart) after i.v. injection; format: in vivo, mouse; conditions: mean ± SEM; for metabolite in liver, 15 min: n = 5; for metabolite in heart, 15 min / metabolite in kidneys, 15 min / metabolite in spleen, 15 min: N = 5
Source text: The total amount of An2-PAPTP and its metabolites, summarized in Table 3, is comprehensive of all the species having the characteristic psoralenic UV spectrum obtained by the overall extraction procedure (i.e., from organic solvent extraction and basic hydrolysis of the remaining pellet), and represents and underestimation of the real concentration in the tissue (see Section 4.7.3). This is because no recovery yield correction was applied, since it was impossible to identify most of the species extracted, and because PAPTPL extracted after high-pH hydrolysis of the pellet could come either from An2-PAPTP or from metabolites. For quantification in HPLC analysis, all the psoralenic species were assumed to have the same molar extinction coefficient as PAPTPL, an assumption justified by the near-identity observed for all the available psoralen-containing molecules.
as §2, with “The liver, spleen, kidneys, heart” for “Brain and liver”, “PAPTPL” for “analyte”, “homogenates or blood” for “homogenates”, “TFA” for “trifluoracetic acid (TFA)”
as §2, §3, §1

SHSY-5Y cells = test: MTS cell viability assay; format: cell-based
Description: SHSY-5Y cells (kindly provided by I. Szabò) were grown in Dulbecco’s Modified Eagle Medium (DMEM, Aurogene) supplemented with 10% (v/v) fetal bovine serum (FBS), 100 U/mL penicillin G, 0.1 mg/mL streptomycin and 5% glutamine.
SHSY-5Y cells were seeded (10,000 cells/well) in standard 96-well plates in DMEM (200 µL). After 24 h, the growth medium was replaced with a medium containing PAPTP and PAPTPL (from a stock solution in DMSO) at the desired final concentrations (20, 10 and 3 μM). DMEM without additions (CONTROL in Figure 2) was used as negative control. The final concentration of DMSO was 0.1% or lower in all cases (including control). After incubation for 24 h, 20 µL of CellTiter 96 AQUEOUS One solution (Promega, Italy) were added to each well and the plate was incubated at 37 °C in a humidified, 5% CO2 atmosphere for 4 h. Absorbance was measured at 490 nm to detect formazan formation.

[7] = after An2-PAPTP 5 µmoles/kg bw i.v.

For `CC[C@H](C)[C@H](NC(=O)Oc1ccc(CCCOc2ccc([P+](CCCc3ccc(OCCCCOc4c5ccoc5cc5oc(=O)ccc45)cc3)(c3ccccc3)c3ccccc3)cc2)cc1)C(=O)NCC(=O)N[C@@H](CCCNC(=N)N)C(=O)N[C@@H](CCCCN)C(=O)N[C@@H](CCCCN)C(=O)N[C@@H](CCCNC(=N)N)C(=O)N[C@@H](CCCNC(=N)N)C(=O)N[C@@H](CCC(N)=O)C(=O)N[C@@H](CCCNC(=N)N)C(=O)N[C@@H](CCCNC(=N)N)C(=O)N[C@@H](CCCNC(=N)N)C(=O)N1CCC[C@H]1C(=O)N1CCC[C@H]1C(=O)N[C@@H](CCC(N)=O)C(=O)NCC(=O)O` [TAT-PAPTP], the “observed toxicity in mice” value (C57BL mice) was “evident signs of illness (respiratory difficulties, trailing limbs, swelling of the paws)”, the “observed toxicity in mice” value (C57BL mice; listed as TAT-PAPT) was “more toxic than its individual components (TAT and PAPTP) as well as than An2-PAPTP” and the “solubility in 0.9% NaCl saline” value ([1]; 0.9% NaCl saline, sonicated 5 min, centrifuged 12,000 × g 18 °C 1 and 2 h, detection limit 0.1 µM) was greater than 100 µM. For the same compound, the solubility in water ([1]; water, sonicated, centrifuged 12,000 × g 18 °C) was greater than 100 µM, the “construct level in brain” value [2] was 0.2–0.3 nmoles/g fresh tissue and the “haemolysis (release of haemoglobin)” value (mouse Red Blood Cells) was “did”. The “hydrolyzed in mouse blood over 4 h (PAPTPL released)” value [3] was “more stable”.

For `O=C(NCCC[P+](c1ccccc1)(c1ccccc1)c1ccccc1)Oc1ccc(OCCCCOc2c3ccoc3cc3oc(=O)ccc23)cc1.[I-]` [PCARBTP, (3-(((4-(4-((7-oxo-7H-furo[3,2-g]chromen-4-yl)oxy)butoxy)phenoxy)carbonyl)amino)propyl)triphenylphosphonium iodide], the “effect on tumor growth” value (orthotopic glioma) is listed as “did not affect tumor growth” and the “killing of cultured glioma and glioblastoma cell lines” value [4] is listed as “efficiently killed”.

With `O=C([O-])C(F)(F)F.O=c1ccc2c(OCCCCOc3ccc(CCC[P+](c4ccccc4)(c4ccccc4)c4ccc(OCCCc5ccc(O)cc5)cc4)cc3)c3ccoc3cc2o1` [PAPTPL, (4-(3-(4-hydroxyphenyl)propoxy)phenyl)(3-(4-(4-((7-oxo-7H-furo[3,2-g]chromen-4-yl)oxy)butoxy)phenyl)propyl)diphenylphosphonium 2,2,2-trifluoroacetate] the “detection in brain after i.p. administration” value [5] was “no An2-PAPTP or PAPTPL could be detected”, the “metabolite in liver, 15 min” value ([6]; after An2-PAPTP 5 µmoles/kg bw i.v. in mouse plasma, HPLC-UV) was 1.5 ± 0.6 nmol/g fresh tissue and the “metabolite in heart, 15 min” value [6, 7] was 0.12 ± 0.06 nmol/g fresh tissue. For the same compound, the “metabolite in kidneys, 15 min” value [6, 7] was 0.7 ± 0.1 nmol/g fresh tissue, the “metabolite in liver, 15 min” value [6, 7] was 1.2 ± 0.5 % administered dose and the “metabolite in spleen, 15 min” value [6, 7] was 0.9 ± 0.2 nmol/g fresh tissue. For the same compound, the “metabolite in heart, 15 min” value ([6]; after An2-PAPTP i.v.) was 0.013 ± 0.007 % administered dose, the “metabolite in kidneys, 15 min” value ([6]; after An2-PAPTP i.v.) was 0.1 ± 0.1 % administered dose and the “metabolite in spleen, 15 min” value ([6]; after An2-PAPTP i.v.) was 0.05 ± 0.02 % administered dose. The “difference in cytotoxic effect versus PAPTP” value (SHSY-5Y cells; 24 h, MTS, one-way ANOVA) was “no statistically significant difference” and the “cytotoxic effect (cell viability, MTS reduction assay)” value (SHSY-5Y cells; 24 h treatment, 20, 10 and 3 μM, absorbance 490 nm, n = 3) was “marked cytotoxicity”.
